# Source: publication PMC2639753 (Bioorganic & medicinal chemistry, 2008)
# Assays:
# HIV-1 (IIIB) = experiment: Antiviral activity against HIV-1; settings: MT-2 cells
# HIV-1 RT = HIV-1 RT (Human immunodeficiency virus type 1 group M subtype B, UniProt P03366); experiment: In vitro steady-state RT inhibition assay; type: biochemical
compound,measurement,setting,value
"C#CCOc1ccc(OC)cc1CCNC(=S)Nc1ccc(Br)cn1 [6b, N-(5-Bromo-2-pyridinyl)-N′-[2-(5-methoxy-2-propargyloxyphenyl)ethyl]-thiourea]",activity relative to HI-236 in cell culture,HIV-1 (IIIB),equal to HI-236
"C#CCCOc1ccc(OC)cc1CCNC(=S)Nc1ccc(Br)cn1 [6c, N-(5-Bromo-2-pyridinyl)-N′-{2-[2-(3-butynyl-1-oxy)-5-methoxyphenyl]ethyl}-thiourea]",fold increase in activity compared to HI-236 in the RT assay,HIV-1 RT,7 fold
"C#CCCCOc1ccc(OC)cc1CCNC(=S)Nc1ccc(Br)cn1 [6d, N-(5-Bromo-2-pyridinyl)-N′-{2-[5-methoxy-2-(4-pentynyl-1-oxy)phenyl]ethyl}-thiourea]",activity relative to HI-236 in the RT assay,HIV-1 RT,as active as HI-236
C#CCOCCOc1ccc(OC)cc1CCNC(=S)Nc1ccc(Br)cn1 [6i],T.I (in vitro therapeutic index CC50/EC50),HIV-1 (IIIB),100
"COC(=O)COc1ccc(OC)cc1CCNC(=S)Nc1ccc(Br)cn1 [6k, N-(5-Bromo-2-pyridinyl)-N′-[2-(2-methoxycarbonylmethyloxy-5-methoxyphenyl)ethyl]-thiourea]",IC50,HIV-1 RT,100 nM
same,fold improvement in RT assay over cell culture,HIV-1 RT; RT IC50 versus cell-culture EC50,120 fold
COc1ccc(OCCCC#N)c(CCNC(=S)Nc2ccc(Br)cn2)c1 [6m],activity relative to HI-236 in cell culture,HIV-1 (IIIB),equal to HI-236
COc1ccc(OCCCO)c(CCNC(=S)Nc2ccc(Br)cn2)c1 [6o],activity relative to HI-236 in the RT assay,HIV-1 RT,as active as HI-236
